Activity calls are given as the source filed them.
How the values were obtained:
[1] = NIH-3T3 fibroblast cytotoxicity, dose response, cytotoxicity control, cell-based, fluorescence, Alamar Blue, secondary assay (AID 2327); format: functional;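 further: NIH-3T3 mouse fibroblasts cultured with fluconazole at 8 µg/mL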
[2] = luciferase reporter signal suppression in cells – H4 neuroglioma cells, luminescence, dose response (AID 1990); format: functional, cell-based
[3] = tested on: Streptococcus sp. 'group A'; test: Streptococcus pyogenes SK(-)GAS viability under kanamycin – luminescence, BacTiterGlo, confirmation, counter-screen for streptokinase expression inhibitor project, dose response (AID 1900); format: functional, organism-based
[4] = Luminescence Cell-Based Dose Response HTS to Identify Inhibitors of 5'UTR Stem-Loop Driven Prion Protein mRNA Translation in H4 Neuroglioblastoma Cells. [Related pubchem assays: 1827 (Project Summary), 1813 (Primary HTS)]; format: functional
[5] = alpha-synuclein stem-loop luciferase translation blockers – H4 neuroglioma cells, luminescence, confirmation (AID 1988); format: functional, cell-based
[6] = fluconazole-exposed Candida albicans growth modulators – fluorescence, retest, confirmation (AID 2467); format: functional, cell-based
[7] = microbe, parasite or virus in culture; format: functional; settings: Mycobacterium tuberculosis
[8] = target: T1, Serine/threonine-protein phosphatase (Candida dubliniensis (strain CD36 / CBS 7987 / NCPF 3949 / NRRLY-17841) (Yeast), UniProt B9W6M3); test: blockers of CaCl2-induced CDRE-lacZ signaling – S. cerevisiae, luminescence, secondary, dose response (AID 2388); format: functional, cell-based;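 further: yeast reporter cells carrying a calcineurin-responsive lacZ construct stimulated with calcium chloride; luminescent beta-galactosidase reporter signal in whole cells rather than isolated phosphatase activity; potency for inhibition where a drop in reporter signal means calcineurin blockade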
T1 sequence (B9W6M3 whole entry): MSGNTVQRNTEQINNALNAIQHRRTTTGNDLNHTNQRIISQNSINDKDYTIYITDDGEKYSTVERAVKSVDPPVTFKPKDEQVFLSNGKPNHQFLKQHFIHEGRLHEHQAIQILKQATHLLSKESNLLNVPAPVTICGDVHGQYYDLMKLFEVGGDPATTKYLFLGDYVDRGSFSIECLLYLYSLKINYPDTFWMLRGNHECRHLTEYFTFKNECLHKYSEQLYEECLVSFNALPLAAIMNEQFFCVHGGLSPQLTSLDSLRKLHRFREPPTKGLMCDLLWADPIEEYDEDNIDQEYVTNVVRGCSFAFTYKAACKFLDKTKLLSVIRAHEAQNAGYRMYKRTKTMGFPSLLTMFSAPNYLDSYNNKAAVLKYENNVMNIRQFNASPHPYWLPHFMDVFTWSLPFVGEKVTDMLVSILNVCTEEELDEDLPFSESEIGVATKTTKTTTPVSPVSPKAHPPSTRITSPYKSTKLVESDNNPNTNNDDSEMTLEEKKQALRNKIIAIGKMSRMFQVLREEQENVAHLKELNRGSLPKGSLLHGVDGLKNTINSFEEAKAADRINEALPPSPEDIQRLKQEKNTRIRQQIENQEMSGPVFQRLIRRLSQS

Streptococcus = test: GAS UMAA2166 growth inhibition – luminescence, BacTiterGlo, counter-screen for streptokinase expression inhibitor project, dose response (AID 1915); format: functional, organism-based;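 further: potency for reduction of bacterial viability or growth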
[9] = target: T1, Serine/threonine-protein phosphatase; test: Fluorescence Cell-Based Secondary Assay to Identify Inhibitors of Calcineurin. [Related pubchem assays (depositor defined):AID1979, AID2007]; format: functional
INS1 = test: INS-1E survival protection against cytokine death – cell-based, luminescence, retest, dose response (AID 449756); format: functional; settings: Rattus norvegicus;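 further: cell death triggered by IL-1 beta plus TNF-alpha plus IFN-gamma mixture; protective hits raise ATP signal compared with cytokine alone wells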
[10] = target: ATP-dependent molecular chaperone HSP82 (Candida albicans (strain WO-1) (Yeast), UniProt C4YTQ8); test: steroid-induced GRE reporter decrease in yeast – S. cerevisiae, luminescence, Hsp90 inhibitor project, dose response (AID 2400); format: functional, cell-based;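 further: beta-galactosidase luminescence from glucocorticoid response element reporter as proxy for Hsp90 function; inhibitor potency where signal loss means Hsp90 inhibition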
ATP-dependent molecular chaperone HSP82, sequence (C4YTQ8 whole entry): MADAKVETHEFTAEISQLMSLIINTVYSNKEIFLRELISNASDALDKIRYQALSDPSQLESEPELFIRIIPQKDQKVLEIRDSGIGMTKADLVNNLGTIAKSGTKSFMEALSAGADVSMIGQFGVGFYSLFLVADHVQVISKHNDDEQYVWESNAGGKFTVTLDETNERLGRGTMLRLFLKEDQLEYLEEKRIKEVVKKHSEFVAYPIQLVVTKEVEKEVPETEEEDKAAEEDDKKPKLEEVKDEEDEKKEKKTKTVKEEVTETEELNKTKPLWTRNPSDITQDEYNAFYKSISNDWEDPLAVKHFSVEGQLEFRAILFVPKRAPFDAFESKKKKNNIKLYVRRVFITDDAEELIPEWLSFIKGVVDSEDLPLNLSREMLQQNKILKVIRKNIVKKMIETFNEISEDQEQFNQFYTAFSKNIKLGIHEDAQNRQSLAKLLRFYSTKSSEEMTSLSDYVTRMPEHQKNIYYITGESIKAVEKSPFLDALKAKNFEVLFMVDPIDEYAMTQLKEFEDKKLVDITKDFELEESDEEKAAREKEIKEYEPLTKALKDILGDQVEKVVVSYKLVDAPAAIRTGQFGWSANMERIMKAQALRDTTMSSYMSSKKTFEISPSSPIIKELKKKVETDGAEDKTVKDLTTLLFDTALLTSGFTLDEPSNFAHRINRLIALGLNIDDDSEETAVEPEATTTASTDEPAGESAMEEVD

HEK293 [11] = test: cells; settings: Homo sapiens
HEK293 [12] = test: cells; settings: Homo sapiens; remark: listed apart in the source
[13] = luciferase reporter signal reduction – luminescence, H4-C neuroglioblastoma cells, dose response (AID 2458); format: functional, cell-based;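 further: H4 neuroglioblastoma cells stably carrying a luciferase reporter gene fusion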
[14] = target: Luciferin 4-monooxygenase (Photinus pyralis, UniProt P08659); test: Counter Screen for Luciferase-based Assay Positives. [Related pubchem assays: 620, 618, 411 ]
Luciferin 4-monooxygenase, sequence (P08659 whole entry): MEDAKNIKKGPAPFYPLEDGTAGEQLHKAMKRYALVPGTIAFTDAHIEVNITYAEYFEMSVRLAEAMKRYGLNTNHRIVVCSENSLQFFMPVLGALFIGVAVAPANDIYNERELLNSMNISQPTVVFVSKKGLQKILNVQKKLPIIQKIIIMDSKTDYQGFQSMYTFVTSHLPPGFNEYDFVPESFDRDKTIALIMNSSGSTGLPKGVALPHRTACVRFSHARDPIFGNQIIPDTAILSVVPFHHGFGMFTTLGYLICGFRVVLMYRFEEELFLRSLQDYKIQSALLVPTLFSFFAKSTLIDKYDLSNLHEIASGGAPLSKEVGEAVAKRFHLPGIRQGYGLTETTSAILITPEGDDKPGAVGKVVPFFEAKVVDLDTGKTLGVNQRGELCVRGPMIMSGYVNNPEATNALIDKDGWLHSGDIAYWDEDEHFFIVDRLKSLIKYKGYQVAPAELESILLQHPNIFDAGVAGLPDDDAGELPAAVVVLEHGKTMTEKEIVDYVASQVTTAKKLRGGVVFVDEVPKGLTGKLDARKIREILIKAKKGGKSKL

cells = format: functional, cell-based
[15] = target: T2, Heat shock factor protein 1 (Mus musculus, UniProt P38532); test: decrease of HSF1-responsive luciferase luminescence – cell-based, NIH3T3, dose retest, confirmation (AID 2382); format: functional;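 further: NIH3T3 fibroblasts with HSF1-driven luciferase reporter stressed by proteasome inhibitor MG132; luminescence from HSF1-driven luciferase expression after 8 hours of MG132 stress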
T2 sequence (P38532 whole entry): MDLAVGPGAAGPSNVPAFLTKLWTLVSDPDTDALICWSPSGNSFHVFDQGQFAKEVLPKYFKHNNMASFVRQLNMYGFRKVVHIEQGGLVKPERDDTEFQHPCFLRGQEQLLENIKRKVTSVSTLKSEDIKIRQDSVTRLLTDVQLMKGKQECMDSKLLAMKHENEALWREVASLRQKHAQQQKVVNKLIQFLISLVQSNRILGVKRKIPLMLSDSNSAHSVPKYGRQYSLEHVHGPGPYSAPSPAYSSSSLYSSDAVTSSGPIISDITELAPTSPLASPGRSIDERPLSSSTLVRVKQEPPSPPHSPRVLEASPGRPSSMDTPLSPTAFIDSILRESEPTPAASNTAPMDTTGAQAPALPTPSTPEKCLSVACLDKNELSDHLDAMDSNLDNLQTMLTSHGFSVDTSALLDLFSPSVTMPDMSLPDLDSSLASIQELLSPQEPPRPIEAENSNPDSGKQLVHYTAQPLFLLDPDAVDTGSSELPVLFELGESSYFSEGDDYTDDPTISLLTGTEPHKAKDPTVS

HT-1080 = test: HT1080 cell viability loss – fluorescence readout (AID 620); format: functional, cell-based; settings: Homo sapiens
[16] = alpha-synuclein stem-loop translation blockers – luminescence, H4 neuroglioblastoma cells, dose confirmation, confirmation (AID 2454); format: functional, cell-based;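 further: H4 neuroglioblastoma cells carrying an alpha-synuclein 5'UTR luciferase reporter; potency for inhibition of the luciferase signal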
Jurkat = test: blockers of NF-kB activation in T cells – Jurkat, luciferase reporter, luminescence, B- and T-cell, dose response (AID 489004); format: functional, cell-based; settings: Homo sapiens;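 further: NF-kB luciferase reporter Jurkat cells stimulated with PMA plus ionomycin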
[17] = HEK-293T viability loss, compound-treated – cell-based, uHTS hits, cytotoxicity control for B/T-cell NF-kB inhibitor project, dose response (AID 489019); format: functional;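 further: IC50 reflects cytotoxicity as loss of cell viability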
[18] = target: T3, Microphthalmia-associated transcription factor (Homo sapiens, UniProt O75030); test: reducers of TRPM1 reporter luminescence, concentration series – cell-based, SK-MEL-5, cherry-picked, set 3, MITF inhibitor project, dose response (AID 493073); format: functional;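 further: SK-MEL-5 melanoma cells with luciferase driven by the MITF target TRPM1 promoter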
T3 sequence (O75030 whole entry): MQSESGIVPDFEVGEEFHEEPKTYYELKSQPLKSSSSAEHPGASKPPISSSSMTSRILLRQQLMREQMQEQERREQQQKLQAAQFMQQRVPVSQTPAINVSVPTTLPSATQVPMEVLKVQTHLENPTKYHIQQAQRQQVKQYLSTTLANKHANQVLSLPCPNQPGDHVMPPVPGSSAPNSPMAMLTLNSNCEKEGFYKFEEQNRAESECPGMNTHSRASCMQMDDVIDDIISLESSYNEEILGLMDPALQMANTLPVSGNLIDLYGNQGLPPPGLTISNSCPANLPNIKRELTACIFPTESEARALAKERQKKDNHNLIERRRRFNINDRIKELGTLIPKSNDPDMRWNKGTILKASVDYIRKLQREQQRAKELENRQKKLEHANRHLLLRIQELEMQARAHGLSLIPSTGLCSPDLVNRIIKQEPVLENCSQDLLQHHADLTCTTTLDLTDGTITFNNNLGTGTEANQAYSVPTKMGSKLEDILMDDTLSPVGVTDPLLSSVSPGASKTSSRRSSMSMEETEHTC

[19] = blockers of HIV-1 envelope-mediated cell-cell fusion – cherry-pick, dose response (AID 652057); format: functional, cell-based
[20] = blockers of HIV-1 ZM109 envelope-driven cell-cell fusion – HeLa effector, CEM target cells, luciferase, cherry-pick, dose response (AID 652058); format: functional, cell-based;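 further: luciferase signal from HIV-1 Env mediated cell-cell fusion of effector and target cells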
[21] = off-target signal loss in HeLa-CEM21 co-culture – HeLa F-luc CTL cells, cherry-picked, counter-screen for HIV-1 Env fusion inhibitor project, dose response (AID 652040); format: functional, cell-based;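 further: potency for signal decrease marking cytotoxic or nonspecific inhibition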
[22] = HIV-1 AD8 envelope cell-cell fusion blockers – cherry-pick, dose response (AID 652062); format: functional, cell-based;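 further: luciferase signal from cell-cell fusion driven by HIV-1 clade B AD8 Env; potency is for inhibitors of fusion seen as a drop in luminescence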
[23] = reduction of Shn3 3'UTR-driven luciferase in osteoblasts – cell-based, Clone20 osteoblasts, firefly luciferase, cherry-picked, dose response (AID 624132); format: functional;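 further: firefly luciferase luminescence from reporter carrying the Shn3 3'UTR in osteoblasts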
[24] = non-specific 3'UTR reporter inhibition in Clone20-Shn3RL – cell-based, Renilla luciferase, cherry-picked, counter-screen for Shn3 inhibitor project, dose response (AID 624133); format: functional
Protein Wnt-3a = Protein Wnt-3a (Mus musculus, UniProt P27467); test: antagonism of Wnt3a pathway luciferase reporter – Wnt-LIGHT cells, luminescence, selectivity assay for Gli-SUFU antagonist project, dose response (AID 651570); format: functional; settings: read-out: IC50_Mean;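 further: Wnt-LIGHT reporter cells stimulated with conditioned medium from Wnt3a-producing cells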
Protein Wnt-3a, sequence (P27467 whole entry): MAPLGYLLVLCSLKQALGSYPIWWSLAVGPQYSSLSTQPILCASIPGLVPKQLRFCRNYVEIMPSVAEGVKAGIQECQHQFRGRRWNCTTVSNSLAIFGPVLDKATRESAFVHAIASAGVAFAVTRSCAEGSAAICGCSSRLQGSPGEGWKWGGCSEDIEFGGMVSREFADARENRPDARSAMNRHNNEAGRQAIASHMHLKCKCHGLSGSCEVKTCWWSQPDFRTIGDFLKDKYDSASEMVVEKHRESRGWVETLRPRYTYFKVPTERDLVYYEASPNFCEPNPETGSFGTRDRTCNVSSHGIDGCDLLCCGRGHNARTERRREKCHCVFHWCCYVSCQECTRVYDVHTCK

[25] = target: T4, COUP transcription factor 2 (Homo sapiens, UniProt P24468); test: Luminescence-based cell-based high throughput dose response assay to identify inhibitors of COUP-TFII (NR2F2).; format: functional;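 further: HEK293 cells transiently cotransfected with COUP-TFII expression vector and reporter; luciferase reporter luminescence driven by COUP-TFII from the pX2-168 reporter plasmid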
T4 sequence (P24468 whole entry): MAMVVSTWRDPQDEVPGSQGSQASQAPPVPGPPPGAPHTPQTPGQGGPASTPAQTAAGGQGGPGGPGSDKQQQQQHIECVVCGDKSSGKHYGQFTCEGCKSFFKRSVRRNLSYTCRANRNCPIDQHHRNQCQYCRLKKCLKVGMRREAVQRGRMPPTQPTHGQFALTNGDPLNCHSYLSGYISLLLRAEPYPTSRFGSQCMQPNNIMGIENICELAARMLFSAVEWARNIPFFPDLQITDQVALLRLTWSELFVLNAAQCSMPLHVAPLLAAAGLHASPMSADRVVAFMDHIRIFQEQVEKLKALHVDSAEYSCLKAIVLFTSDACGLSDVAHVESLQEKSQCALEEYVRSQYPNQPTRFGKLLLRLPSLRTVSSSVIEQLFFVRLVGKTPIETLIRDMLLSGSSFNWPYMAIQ

CC(C)COCc1ccc(O)c2ncccc12
EC50 [1]: 31800 nM (active) | EC50 [2]: 12100 nM (active) | EC50 [3]: 1670 nM (active) | EC50 [4]: 10900 nM (active) | EC50 [5]: 9380 nM (active) | EC50 [6]: 294 nM (active) | CC50 [7]: 10200 nM (active) | EC50 [8]: > 180000 nM (inactive) | EC50 (Streptococcus): 5430 nM (active) | EC50 [9]: > 285000 nM (inactive) | AC50 (INS1): 2350 nM (active) | EC50 [10]: > 150000 nM (inactive)

Cc1cc(NC(=O)CSc2nc(C(C)C)nc3sc(C)c(C)c23)no1
EC50 (HEK293 [11]): > 59700 nM (inactive) | EC50 (HEK293 [12]): > 59700 nM (inactive)

CC(C)(C)c1ccc(C(=O)Nc2ccc(CC(=O)O)cc2)o1
EC50 [2]: < 100 nM (active) | EC50 [13]: 106 nM (active) | EC50 [14]: 570 nM (active) | EC50 (cells): 344 nM (active) | EC50 [15]: < 160 nM (active) | EC50 [5]: < 100 nM (active) | EC50 (HT-1080): > 50000 nM (not active) | EC50 [16]: 113 nM (active) | IC50 (Jurkat): < 160 nM (active) | IC50 [17]: > 80000 nM (inactive) | AC50 [18]: 329 nM (active) | AC50 [19]: 392 nM (active) | AC50 [20]: < 260 nM (active) | AC50 [21]: 558 nM (active) | AC50 [22]: < 260 nM (active)

CCOC(=O)C1CCCN(S(=O)(=O)c2ccc(S(=O)(=O)N(CC)CC)cc2)C1 (stereo unspecified)
IC50 (Jurkat): > 80000 nM (inactive) | IC50 [17]: > 80000 nM (inactive) | AC50 (INS1): 2600 nM (active) | AC50 [23]: 512 nM (active) | AC50 [24]: 801 nM (active) | IC50 (Protein Wnt-3a): 236 nM (active) | IC50 [25]: 4750 nM (active)

Reference: ChEMBL document CHEMBL1201862, “PubChem BioAssay data set” (2004)
